# Reference: PMC9435431, “Novel chemical entities inhibiting Mycobacterium tuberculosis growth identified by phenotypic high-throughput screening” (Scientific Reports, 2022)
# “Also recorded” adds a separate entry of the source. Where two headings read alike, the source gives them in different places.
# What was measured:
# [1] = in vitro; format: cell-based; settings: human; for IC20: concentration for 20% inhibition of HepG2 cells, 72 h, n = 2
# Description: HepG2 cells were seeded at 2000 cells per well in 384-well, black, clear bottom PDL coated plates in MEM medium supplemented with 10% FBS, 2 mM L-glutamine, 1 mM sodium pyruvate and incubated overnight at 37C, 5% CO2. Compounds were added and plates incubated for 72 h. Cell viability was measured using the CyQUANT® reagent and imaging on a ViewLux™ ultraHTS Microplate Imager. The IC20 and IC50 were calculated from dose response curves.
# [2] = system: M. tuberculosis H37Rv; assay: microbe, parasite or virus in culture; format: cell-based; settings: Mycobacterium tuberculosis, 120 h
# [3] = system: wild-type M. tuberculosis; assay: microbe, parasite or virus in culture; format: cell-based, Mycobacterium tuberculosis; settings: for MIC / IC90: Mycobacterium tuberculosis
# [4] = system: M. tuberculosis; assay: microbe, parasite or virus in culture; format: cell-based; settings: Mycobacterium tuberculosis, read-out: MIC on solid medium
# [5] = in vitro; format: in vitro ADME, human; settings: for CLint scaled at 0.5 µM: human, microsomes; for microsomal clearance / stability (in words): human microsomes
# Description: (§1) Compounds (0.5 µM) were incubated with 0.25 mg/mL liver microsomal proteins at pH 7.4 at 37 °C. Reactions were initiated with […] and samples taken at 0, 5, 10, 15, 20 and 30 min. The reaction was stopped by addition of 95% ACN/5% MeOH containing an internal standard. Samples were combined in compound groups of six pre-sorted by mono molecular weight and analyzed by LC/MS/MS. The peak area ratios (analyte peak area/IS peak area) were converted to % remaining using the area ratio at time 0 as 100%. The. half-life (T ½) and intrinsic clearance (mCLint) were calculated.
# [6] = in vivo; settings: female, Balb/c, mouse; for AUC: po, 30 mg/kg
# [7] = in vitro; settings: PAMPA
# [8] = in vitro; format: in vitro ADME; settings: mouse, microsomes, pH 7.4
# Description: as §1
# [9] = mouse, in vivo
# [10] = Critical aggregation concentration; format: physicochemical
# [11] = Table 5, read-out: Wild-type MIC
SMILES,inhibition at 20 µM ([2]; read-out: % Inhibition Run 1),inhibition at 20 µM ([2]; read-out: % Inhibition Run 2),IC20 at 72 h [1],MIC ([3]; read-out: MTB MIC),other results
c1ccc(-c2cncc(N3CC4CC5CC3CN(C5)C4)c2)cc1 (stereo not drawn) [AAP],99%,97%,,,"IC20 [1]: 27 µM; MIC ([3]; 120 h, read-out: MTB MIC): 23 µM"
CC(=O)n1cc(Nc2ccccc2O)c2ccccc21 [ACI-2],100%,100%,30 µM,4.5 µM,
O=C(c1c(Cl)cccc1Cl)N1COCN(c2ccc(C(F)(F)F)cc2)C1=O [ACU-1],98%,98%,65 µM,7.6 µM,
c1ccc(N2CCN(Cc3cnc4ccccc4n3)CC2)cc1 [AMQ-5],98%,99%,2 µM,7.8 µM,
Clc1ccc(-c2nc(Cn3ccnc3)cs2)cc1 [AMT-1],98%,96%,34 µM,35 µM,
CNc1cc(-c2ccccn2)nc(-c2ccccn2)n1 [APDP-1],99%,100%,0.028 µM,10 µM,IC90 [3]: 10 µM
O=S(=O)(Nc1ccccc1-c1nn[nH]n1)c1ccc(OC(F)(F)F)cc1 [APT],99%,99%,0.47 µM,6.9 µM,
N#C/C(=C\NC1CCCCC1)c1nc2ccccc2[nH]1 [BCI-2],100%,100%,0.85 µM,9.6 µM,
CCC(=O)Nc1nc(-c2nc3ccccc3oc2=O)cs1 [BOZ],99%,100%,37 µM,4.8 µM,
Cc1cnc(-n2nnc3ccccc3c2=O)s1 [BTT],100%,100%,37 µM,4.8 µM,
Nc1ccnc(Nc2ccccc2Nc2ccccc2)n1 [DAP],99%,99%,0.83 µM,0.7 µM,
NCC(c1ccco1)S(=O)(=O)c1ccccc1 (stereo not drawn) [FAS],100%,100%,2 µM,9.5 µM,
O=C(Nc1nc2ccccc2s1)NC1C2CC3CC(C2)CC1C3 (stereo not drawn) [HBU-1],100%,100%,8.2 µM,,"IC90 [3]: 4.2 µM; MIC ([3]; 120 h, read-out: MTB MIC): 4.2 µM"
CNC(=O)N(O)C1c2cccc(F)c2Oc2ccsc21 (stereo not drawn) [HDU-2],99%,100%,42 µM,19 µM,
"CCC1(N2CCC(c3ccccc3)CC2)CCCCC1 [Molecule 4PP-1, 1-(1-Ethyl-cyclohexyl)-4-phenyl-piperidine]",100%,99%,,6.3 µM,"IC20 [1]: > 80 µM; IC90 [3]: 6.3 µM; MIC ([3]; 120 h, read-out: MIC): 6.3 ± 2.7 µM; MIC [3, 11]: 6.3 µM; MIC ([3]; read-out: MIC): 6.3 µM"
"O=C(O)C(F)(F)F.c1cc(C2CCN(CC3CCCCC3)CC2)ccn1 [Molecule 4PP-32, 4-[1-(Cyclohexylmethyl)-4-piperidyl]pyridine, 2,2,2-trifluoroacetic acid salt]",,,,,"anti-tubercular activity (in words) [3]: inactive; MIC ([3]; 120 h, read-out: MIC): > 20 µM; MIC [4]: 1.6 µM"

SMILES,inhibition at 20 µM ([2]; read-out: % Inhibition Run 1),inhibition at 20 µM ([2]; read-out: % Inhibition Run 2),IC20 at 72 h [1],MIC ([3]; read-out: MTB MIC),other results
"COc1ccc(CCNC(=O)C2(c3ccccc3)CCC2)cc1Br [PCB-1, N-(3-bromo-4-methoxyphenethyl)-1-phenylcyclobutane-1-carboxamide]",100%,100%,33 µM,6.9 µM,"CLint scaled at 0.5 µM ([5]; pH 7.4, human Clint): 1330 mL/min/kg; MIC ([3]; 120 h, read-out: MIC): 6.9 ± 1.7 µM; MIC ([3]; read-out: MIC): 6.9 µM"
"O=C(NCCc1cc(Br)c(O)c(Br)c1)C1(c2ccccc2)CCC1 [PCB-2, N-(3,5-dibromo-4-hydroxyphenethyl)-1-phenylcyclobutane-1-carboxamide]",,,,,"AUC [6]: 58 ng·h/mL; Papp [7]: 87 ×10⁻⁶ cm/s; CLint scaled at 0.5 µM ([5]; pH 7.4, human Clint): 427 mL/min/kg; CLint scaled at 0.5 µM ([5]; pH 7.4, in vitro human unbound microsomal clearance Clint,u): 593 mL/min/kg; CLint scaled at 0.5 µM [8]: 1920 mL/min/kg; MIC ([3]; 120 h, read-out: MIC): 3.4 ± 0.6 µM; MIC ([3]; read-out: MIC): 3.4 µM; Oral AUC ([9]; female, Balb/c, po, 30 mg/kg): 58 ng·h/mL; critical aggregation concentration [10]: 3.3 µM"
"O=C(NCCc1cccc(Br)c1)C1(c2ccc(F)cc2)CCC1 [PCB-19, N-(3-bromophenethyl)-1-(4-fluorophenyl)cyclobutane-1-carboxamide]",,,,,"microsomal clearance / stability (in words) [5]: very poor microsomal stability; CLint scaled at 0.5 µM ([5]; pH 7.4, human Clint): 3920 mL/min/kg; MIC ([3]; 120 h, read-out: MIC): 2.3 ± 0.7 µM; MIC [3, 11]: 2.3 µM; MIC [4]: 0.63 µM"
"O=C(NCCc1cccc(Br)c1)C1(c2ccccc2Br)CCC1 [PCB-21, N-(3-bromophenethyl)-1-(2-bromophenyl)cyclobutane-1-carboxamide]",,,,,"CLint scaled at 0.5 µM ([5]; pH 7.4, human Clint): 13600 mL/min/kg; MIC ([3]; 120 h, read-out: MIC): 2 ± 0.5 µM; MIC [3, 11]: 2 µM; MIC [4]: 1.25 µM"
"Cc1ccccc1C1(C(=O)NCCc2cccc(C(F)(F)F)c2)CCC1 [PCB-29, 1-(o-tolyl)-N-(3-(trifluoromethyl)phenethyl)cyclobutane-1-carboxamide]",,,,,"microsomal clearance / stability (in words) [5]: increase in clearance; CLint scaled at 0.5 µM ([5]; pH 7.4, human Clint): 14700 mL/min/kg; MIC ([3]; 120 h, read-out: MIC): 0.45 ± 0.01 µM; MIC ([3]; read-out: MIC): 0.45 µM"
"O=C(NCCc1cccc(C(F)(F)F)c1)C1(c2ccc(F)cc2)CCC1 [PCB-30, 1-(4-fluorophenyl)-N-(3-(trifluoromethyl)phenethyl)cyclobutane-1-carboxamide]",,,,,"microsomal clearance / stability (in words) [5]: significantly improved clearance; CLint scaled at 0.5 µM ([5]; pH 7.4, human Clint): 2020 mL/min/kg; anti-tubercular activity (in words) [3]: slight reduction in activity; MIC ([3]; 120 h, read-out: MIC): 0.99 ± 0.3 µM"
"O=C(NCCc1cc(Br)c(O)c(Br)c1)C1(c2ccc(F)cc2)CCC1 [PCB-31, N-(3,5-dibromo-4-hydroxyphenethyl)-1-(4-fluorophenyl)cyclobutane-1-carboxamide]",,,,,"half-life ([6]; iv): 12 min; AUC [6]: 259 ng·h/mL; CLint scaled at 0.5 µM ([5]; pH 7.4, human Clint): 128 mL/min/kg; CLint scaled at 0.5 µM [8]: 527 mL/min/kg; anti-tubercular activity (in words) [3]: good anti-TB activity; also recorded: sub-micromolar; MIC ([3]; 120 h, read-out: MIC): 0.94 ± 0.23 µM; absorption (in words) [9]: solubility-limited absorption"
C=CCc1c(C)nc(-c2ccccn2)nc1O [PDPO-1],99%,96%,2.8 µM,23 µM,
Cc1nc2ccccn2c1-c1ccn(Cc2ccccc2)n1 [PPP-1],100%,98%,4.3 µM,38 µM,
CC(C)c1ccc(-n2nnn(C(=O)N(C)C3CCOCC3)c2=O)cc1Cl [PTZ-3],96%,6%,,5.2 µM,IC20 [1]: 26 µM
Cc1ccc(-c2nnc(C)c(N3CCCC3)n2)cc1 [PYT],100%,98%,23 µM,11 µM,IC90 [3]: 11 µM
CN(Cc1cn2c3ccccc3n(C)c2n1)C12CC3CC(CC(C3)C1)C2 [PZI],98%,98%,15 µM,9.3 µM,
Cc1cc(NC2CCCCC2)nc(-n2nc(C)cc2C)n1 [PZP-3],98%,98%,47 µM,4.5 µM,IC90 [3]: 4.5 µM
CC(=O)n1nccc1-c1sc(-c2cccs2)nc1C [TPT],99%,99%,> 80 µM,7.1 µM,IC90 [3]: 7.1 µM
CCOC(=O)c1oc2c(c1C)-c1nc(C)sc1CC2 [TZF],99%,99%,> 80 µM,18 µM,
